Experimental data reported in patent US5596002A, “Method of treating chloroquine-resistant malaria with aminoquinoline derivatives” (Hoffmann-La Roche Inc., priority 1993, dated 1997).
In brackets after ≈: the same amount, converted by molar mass. Like-named read-outs stand apart in the source and are kept apart here.

What was measured:
[1] = tested on: Plasmodium falciparum, chloroquine-resistant strain RFCR3; assay: activity against P. falciparum in vitro, strain RFCR3; type: cell-based; details: chloroquine-resistant strain RFCR3, 48 h-72 h, read-out: IC50 (50% growth inhibition)
Experimental: (§1) Test method for the determination of the activity against P. falciparum in vitro
(§2) The preparations of the present invention were tested on intraerythrocytary stages of P. falciparum from asynchronous cultures according to the method of Desjardin et al. (Desjardins, R. E. et al: Quantitative assessment of antimalarial activity in vitro by a semiautomated microdilution technique. Antimicrob. Agents Chemother. 16, 710-718, (1979)).
(§3) The culture medium consisted of RPMI 1640 with the addition of 25 mM HEPES, 25 mM NaHCO3, […] neomycin and 10% human serum (A^+). Human-A^+ erythrocytes were used as the P. falciparum host cells. The parasites were maintained at 37° C. in an atmosphere of 3% O2, 4% CO2, 93% N2 and at 95% relative humidity.
(§4) In order to determine the activity, the preparations were dissolved in DMSO, pre-diluted in the culture medium to a suitable starting concentration and subsequently titrated-out into microtitre plates in the 2nd stage over 6-7 steps. After the addition of the parasite culture (0.7% parasitemia in 2.5% erythrocyte suspension), the test plates were incubated under the conditions given above for 48 h-72 h. The parasite growth in the different preparation concentrations was determined using [G-^3 H]-hypoxanthin incorporation compared to untreated control cultures on the same test plates. The 50% growth inhibition (IC50) was calculated according to logit regression analysis from the resulting dosage-activity curve.
(§5) The preparations were tested on at least one chloroquine-resistant and one chloroquine-sensitive P. falciparum strain. Additional sensitive and resistant strains were also included for further characterization.
(§6) Table 1 below contains the IC50 values measured in vitro for the growth inhibition of chloroquine-sensitive and chloroquine-resistant strains of the human pathogenic Plasmodium falciparum.

[2] = tested on: Plasmodium falciparum, chloroquine-sensitive strain Ro7 3; assay: activity against P. falciparum in vitro, strain Ro7 3; type: cell-based; details: chloroquine-sensitive strain Ro7 3, 48 h-72 h, read-out: IC50 (50% growth inhibition)
Experimental: as §1, §2, §3, §4, §5, §6

[3] = tested on: Plasmodium falciparum, chloroquine-resistant strain Indo; assay: activity against P. falciparum in vitro, strain Indo; type: cell-based; details: chloroquine-resistant strain Indo, 48 h-72 h, read-out: IC50 (50% growth inhibition)
Experimental: as §1, §2, §3, §4, §5, §6

[4] = tested on: Plasmodium falciparum, chloroquine-sensitive strain RFMEF3; assay: activity against P. falciparum in vitro, strain RFMEF3; type: cell-based; details: chloroquine-sensitive strain RFMEF3, 48 h-72 h, read-out: IC50 (50% growth inhibition)
Experimental: as §1, §2, §3, §4, §5, §6

[5] = tested on: Plasmodium falciparum, chloroquine-sensitive strain HB3; assay: activity against P. falciparum in vitro, strain HB3; type: cell-based; details: chloroquine-sensitive strain HB3, 48 h-72 h, read-out: IC50 (50% growth inhibition)
Experimental: as §1, §2, §3, §4, §5, §6

[6] = tested on: Plasmodium falciparum, chloroquine-resistant strain ItG2 F6; assay: activity against P. falciparum in vitro, strain ItG2 F6; type: cell-based; details: chloroquine-resistant strain ItG2 F6, 48 h-72 h, read-out: IC50 (50% growth inhibition)
Experimental: as §1, §2, §3, §4, §5, §6

[7] = tested on: Plasmodium falciparum, chloroquine-resistant strain W2; assay: activity against P. falciparum in vitro, strain W2; type: cell-based; details: chloroquine-resistant strain W2, 48 h-72 h, read-out: IC50 (50% growth inhibition)
Experimental: as §1, §2, §3, §4, §5, §6

[8] = tested on: Plasmodium falciparum, chloroquine-resistant strain 7G8; assay: activity against P. falciparum in vitro, strain 7G8; type: cell-based; details: chloroquine-resistant strain 7G8, 48 h-72 h, read-out: IC50 (50% growth inhibition)
Experimental: as §1, §2, §3, §4, §5, §6

[9] = tested on: Plasmodium falciparum, chloroquine-sensitive strain NF54; assay: activity against P. falciparum in vitro, strain NF54; type: cell-based; details: chloroquine-sensitive strain NF54, 48 h-72 h; for IC50: Plasmodium falciparum, read-out: IC50 (50% growth inhibition)
Experimental: as §1, §2, §3, §4, §5, §6

[10] = tested on: Plasmodium falciparum, chloroquine-resistant strain K1; assay: activity against P. falciparum in vitro, strain K1; type: cell-based; details: chloroquine-resistant strain K1, 48 h-72 h; for IC50: Plasmodium falciparum, read-out: IC50 (50% growth inhibition)
Experimental: as §1, §2, §3, §4, §5, §6

[11] = tested on: Plasmodium falciparum, chloroquine-sensitive strain FCH5C2; assay: activity against P. falciparum in vitro, strain FCH5C2; type: cell-based; details: chloroquine-sensitive strain FCH5C2, 48 h-72 h, read-out: IC50 (50% growth inhibition)
Experimental: as §1, §2, §3, §4, §5, §6

[12] = tested on: Plasmodium berghei (strain ANKA); assay: activity against Plasmodium berghei in vivo (infected mice); details: mice; for ED50: single administration po, dose reducing average erythrocyte infection rate by 50%, read-out: ED50 (po); for inhibition in vivo at 10 mg/kg: 48 hours after treatment (D+3)
Experimental: Test method for the determination of the activity against Plasmodium berghei in vivo
The preparations according to the present invention were tested on mice infected with malaria pathogens (Plasmodium berghei). Male albino mice (IBM:MORO(SPF), FUELLINSDORF) weighing about 25 g were used as the test animals. They were kept in climatized rooms at 21°-22° C. in groups of 5 animals per cage. They received ad libitum a diet feed with a low PABA content ("NAFAG FUTTER" No. 9009 PAB-45, PABA content 45 mg/kg) and drinking water. On the first day of the test (D0) the test animals were infected with Plasmodium berghei (strain ANKA). For this there was used heparinized blood of a donor mouse with about 30% parasitemia, which was diluted with physiological saline such that it contains 10^8 parasitized erythrocytes per ml. 0.2 ml of this suspension was injected intravenously (i.v.) into the mice to be treated and into the control mice. In untreated control animals the parasitemia normally reaches 30-40% on the third day after the infection (D+3) and the test animals die between days +5 and +7.
The substances to be tested were dissolved or suspended in distilled water or in a mixture of 7% Tween 80, 3% alcohol (96%) and water. Usually, 0.25 ml of this solution or suspension was administered once subcutaneously and perorally to groups of 5 test animals. Treatment was effected 24 hours after the infection. 10 control animals were treated in the same manner with solvent or suspension medium per test.
All substances were tested in a first test in a single dosage of 10 mg/kg. Only those substances which in this test (10 mg/kg) had shown a parasitaemia reduction of 90% were used for the titration.
48 hours after the treatment (D+3), blood smears were prepared from all animals using blood from tail veins and were stained with Giemsa. The average erythrocyte infection rate (parasitemia in %) in the control groups as well as in the groups which had been treated with the test compounds was determined by counting under a microscope. The difference in the average values of the infection rates of control group (100%) and treated groups was calculated and expressed as a percentage reduction (GI %). The ED50 or ED90 was determined mathematically by means of the JMP programme (nonlinear fit). The ED50 (ED90) in mg/kg is that dose which after single administration reduces the average erythrocyte infection rate by 50% (90%) in comparison to the control group.
Table 2 below contains data with respect to the activity measured against Plasmodium berghei in mice: GI % is the percentage reduction in the parasitemia after a single dose of 10 mg/kg of the test substance administered perorally (po) or subcutaneously (sc); ED50 and ED90 are the effective doses of the test substance administered perorally or subcutaneously.

[13] = single dose 10 mg/kg po, read-out: GI % at 10 mg/kg (po): percentage reduction in the parasitemia
[14] = single dose 10 mg/kg sc, read-out: GI % at 10 mg/kg (sc): percentage reduction in the parasitemia

Row | Compound | IC50 [9] [µg/mL] | IC50 [10] [µg/mL] | ED50 [12] [mg/kg] | inhibition in vivo at 10 mg/kg [12, 13] [%] | inhibition in vivo at 10 mg/kg [12, 14] [%] | also measured
1 | CCN(CC)CCNc1ccnc2cc(C(F)(F)F)ccc12 [Example 21, N1,N1 -Diethyl-N2-(7-trifluoromethyl-quinolin-4-yl)-ethane-1,2-diamine] | 0.021 (≈ 0.0674 µM) | 0.034 (≈ 0.109 µM) | – | – | – | IC50 [1]: 0.054 µg/mL (≈ 0.173 µM); IC50 [2]: 0.028 µg/mL (≈ 0.0899 µM); IC50 [3]: 0.031 µg/mL (≈ 0.0996 µM); IC50 [4]: 0.035 µg/mL (≈ 0.112 µM); IC50 [5]: 0.033 µg/mL (≈ 0.106 µM); IC50 [6]: 0.028 µg/mL (≈ 0.0899 µM); IC50 [7]: 0.057 µg/mL (≈ 0.183 µM); IC50 [8]: 0.049 µg/mL (≈ 0.157 µM); IC50 [11]: 0.035 µg/mL (≈ 0.112 µM)
2 | CCN(CC)C[C@H](C)Nc1ccnc2cc(Cl)ccc12 [Example 33e, (S)-N2-(7-Chloro-quinolin-4-yl)-N1,N1-diethyl-propane-1,2-diamine] | 0.012 (≈ 0.0411 µM) | 0.053 (≈ 0.182 µM) | 3.1 | 99.8 | 99.9 | –
3 | CCN(CC)C[C@@H](C)Nc1ccnc2cc(Cl)ccc12 [Example 33f, (R)-N2 (7-Chloro-quinolin-4-yl)-N1,N1-diethyl-propane-1,2-diamine] | 0.012 (≈ 0.0411 µM) | 0.041 (≈ 0.14 µM) | 2.8 | 99.8 | 99.9 | –
4 | (R)-N1 -(7-Chloro-quinolin-4-yl)-N2,N2 -dimethyl-propane-1,2-diamine [Example 33h] | – | – | – | – | – | IC50 (50% growth inhibition) [9]: 0.007 µg/mL; IC50 (50% growth inhibition) [10]: 0.018 µg/mL

More lines, main results first:

Row | IC50 [9] [µg/mL] | IC50 [10] [µg/mL] | Compound | ED50 [12] [mg/kg] | inhibition in vivo at 10 mg/kg [12, 13] [%] | inhibition in vivo at 10 mg/kg [12, 14] [%] | also measured
5 | 0.008 (≈ 0.0303 µM) | 0.024 (≈ 0.091 µM) | C[C@@H](CN(C)C)Nc1ccnc2cc(Cl)ccc12 [Example 33c, (S)-N2-(7-Chloro-quinolin-4-yl)-N1,N1-dimethyl-propane-1,2-diamine] | 1.9 | 99.9 | 99.9 | –
6 | 0.008 (≈ 0.0303 µM) | 0.023 (≈ 0.0872 µM) | C[C@H](CN(C)C)Nc1ccnc2cc(Cl)ccc12 [Example 33d, (R)-N2-(7-Chloro-quinolin-4-yl)-N1,N1-dimethyl-propane-1,2-diamine] | 2.2 | 99.9 | 99.9 | –
7 | 0.005 (≈ 0.019 µM) | 0.017 (≈ 0.0644 µM) | C[C@@H](CNc1ccnc2cc(Cl)ccc12)N(C)C [Example 33g, (S)-N1-(7-chloro-quinoline-4-yl)-N2,N2-dimethyl-propane-1,2-diamine] | – | – | – | –
